Test results as given in patent US20130273003A1, “Therapies for Treating Hepatitis C Virus Infection” (priority 2012, published 2013).

Experiments:
[1] = test system: HCV; assay: REALIZE trial: SVR by IL28B genotype in Peg-IFN/RBV experienced patients; format: in vivo, Hepatitis C virus; conditions: TVR 750 mg every 8 hours in combination with Peg-IFN/RBV, treatment-experienced patients
Method: This exploratory sub-analysis evaluated virologic response by IL28B genotype (rs12979860) in the Phase III TVR REALIZE trial. REALIZE is an international, multicentre, randomized, double-blind, placebo-controlled trial in Peg-IFN/RBV experienced patients; including prior relapsers, prior partial responders and prior null responders. Patients were included in this sub-analysis if they had consented to genetic testing.
FIG. 1 is a graphic depiction of the REALIZE study design. Drugs were administered in the following dosages: Peg-IFN alfa-2a=180 μg/week; RBV=1000-1200 mg/day; TVR=750 mg every 8 hours; Pbo=placebo. Overall, 527/662 (80%) patients enrolled in REALIZE consented to genetic testing; Data from T12/PR48 and T12(DS)/PR48 arms were pooled since no differences were observed between TVR arms. Randomization was stratified by viral load and prior response. Stopping rules were applied for TVR (Weeks 4, 6, and 8) and Peg-IFN/RBV (Weeks 12, 24, and 36).

[2] = test system: hepatitis C virus (HCV) replicon; assay: HCV Replicon Cell Assay; format: cell-based
Method: Cells containing hepatitis C virus (HCV) replicon were maintained in DMEM containing 10% fetal bovine serum (FBS), 0.25 mg per ml of G418, with appropriate supplements (media A).
On day 1, replicon cell monolayer was treated with a trypsin:EDTA mixture, removed, and then media A was diluted into a final concentration of 100,000 cells per ml wit. 10,000 cells in 100 μl were plated into each well of a 96-well tissue culture plate, and cultured overnight in a tissue culture incubator at 37° C.
On day 2, compounds (in 100% DMSO) were serially diluted into DMEM containing 2% FBS, 0.5% DMSO, with appropriate supplements (media B). The final concentration of DMSO was maintained at 0.5% throughout the dilution series.
Media on the replicon cell monolayer was removed, and then media B containing various concentrations of compounds was added. […]
A Taqman real-time RT-PCR quantification assay was set up with two sets of specific primers and probe. […] Total RNA extractants from treated HCV replicon cells was added to the PCR reactions for quantification of both HCV and BVDV RNA in the same PCR well. […] The level of HCV RNA in each well was calculated according to a standard curve run in the same PCR plate. The percentage of inhibition or decrease of HCV RNA level due to compound treatment was calculated using the DMSO or no compound control as 0% of inhibition. […]

[3] = test system: genotype 1 HCV; assay: ADVANCE trial: SVR rates, overall and by IL28B genotype; format: in vivo, Hepatitis C virus; conditions: for SVR rate: overall (full analysis population)
Method: IL28B genotype was determined in de-identified left-over specimens available from treatment-naïve genotype 1 HCV patients from ADVANCE U.S. sites. Due to the requirements of the de-identification procedure, only samples from Caucasian patients were tested. A series of associated clinical data was retained with the de-identified samples: HCV genotype, prior treatment response, assigned study arm, study completion, RVR, SVR, baseline viral load, EVR, undetectable at EOT.
IL28B genotyping was performed using 100 ng DNA from whole blood or peripheral blood mononuclear cell preparations with TaqMan® PCR, rs12979860 (ABI)

CCC[C@H](NC(=O)[C@@H]1[C@H]2CCC[C@H]2CN1C(=O)[C@@H](NC(=O)[C@@H](NC(=O)c1cnccn1)C1CCCCC1)C(C)(C)C)C(=O)C(=O)NC1CC1 [VX-950]
SVR rates versus Peg-IFN/RBV alone [1]: increased SVR rates across all IL28B genotypes | activity in the replicon assay [2]: significant activity | SVR rate ([3]; T8PR arm): 69% | SVR rate ([3]; T12PR arm): 75% | SVR ([3]; T12PR, IL28B CC): 90% | patients receiving 24 weeks of total therapy ([3]; T12PR, IL28B CC): 78% | SVR ([3]; T12PR, IL28B CT): 71% | SVR ([3]; T12PR, IL28B TT): 73% | RVR and eRVR rates compared to peginterferon alfa-2a/ribavirin alone ([3]; telaprevir-based regimen): improved RVR and eRVR rates across all IL28B genotypes | achieved SVR ([3]; telaprevir-based regimen, eRVR, IL28B CC): 97% | achieved SVR ([3]; telaprevir-based regimen, eRVR, IL28B CT): 88% | achieved SVR ([3]; telaprevir-based regimen, eRVR, IL28B TT): 85% | achieved SVR ([3]; telaprevir-based regimen, no eRVR, IL28B CC): 63% | achieved SVR ([3]; telaprevir-based regimen, no eRVR, IL28B CT): 33% | achieved SVR ([3]; telaprevir-based regimen, no eRVR, IL28B TT): 46% | achieved SVR ([3]; telaprevir-based regimen, patients who did not have eRVR (48 weeks of therapy)): 43% | achieved SVR ([3]; telaprevir-based regimen, patients who had eRVR (24 weeks of therapy)): 91%
